One assay concerns the target T1, KRAS-G12D and SOS1 (Homo sapiens, UniProt P01116, G12D).
T1 construct: purchased
Nature of the assay: Inhibition of KRAS-G12D/SOS1 binding (Cisbio binding kit, 665/615 ratio), Effect Embodiment A. The following applies: read-out: GTP-KRAS-G12D:SOS1 IC50. The gist of the method: (§1)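 Compounds are tested over eleven threefold dilution steps in duplicate, with final DMSO at 1%.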

The target of another assay is T2, KRAS_G12D and cRAF (Homo sapiens, UniProt P01116, G12D).
T2 construct: purchased
Nature of the assay: Inhibition of KRAS_G12D/cRAF binding (Cisbio binding kit, 665/615 ratio), Effect Embodiment B. As to conditions: read-out: GTP-KRAS-G12D:CRAF IC50. The gist of the method: as §1

The next assay has as its target T3, KRAS_WT and SOS1 (Homo sapiens, UniProt P01116).
T3 construct: purchased
Kind of assay: Inhibition of KRAS_WT/SOS1 binding (Cisbio binding kit, 665/615 ratio), Effect Embodiment C. The following applies: read-out: GTP-KRAS-WT:SOS1 IC50. The gist of the method:
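Compounds tested as 3-fold, 11-point dilutions in duplicate at 1% DMSO final against the KRAS_WT/SOS1 binding system. IC50 derived by nonlinear regression fit.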

From patent publication US20230365563A1, “QUINAZOLINE COMPOUND AND APPLICATION THEREOF” (SHANGHAI PHARMACEUTICALS HOLDING CO., LTD., priority 2020, published 2023) come the findings set out here.

Structures are written as SMILES. Counter-ions that a name gives are not always drawn.

T2 sequence (P01116 1-188 isoform P01116-2 G12D): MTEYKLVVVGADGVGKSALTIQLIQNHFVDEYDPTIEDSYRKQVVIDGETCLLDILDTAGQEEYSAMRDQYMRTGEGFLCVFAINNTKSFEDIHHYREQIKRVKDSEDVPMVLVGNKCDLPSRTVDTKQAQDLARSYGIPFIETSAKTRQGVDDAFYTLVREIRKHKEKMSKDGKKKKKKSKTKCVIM
T1 sequence (P01116 1-188 isoform P01116-2 G12D): as above
T3 sequence (P01116 1-188 isoform P01116-2): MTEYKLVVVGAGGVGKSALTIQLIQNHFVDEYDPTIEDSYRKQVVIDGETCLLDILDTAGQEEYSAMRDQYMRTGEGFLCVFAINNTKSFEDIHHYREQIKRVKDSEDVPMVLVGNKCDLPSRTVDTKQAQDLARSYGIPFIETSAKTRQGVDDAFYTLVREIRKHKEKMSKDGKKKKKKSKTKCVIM

`C[C@@H]1CN(CCCOc2nc(N3CC4CCC(C3)N4)c3cc(Cl)c(-c4cc(O)cc5ccccc45)c(F)c3n2)C[C@H](C)O1` (single isomer, unassigned) [Compound 125, 4-((S or R)-4-((1R,5S)-3,8-diazacyclo[3.2.1]octan-3-yl)-6-chloro-2-(3-((2S,6R)-2,6-dimethylmorpholine)propoxy)-8-fluoroquinolin-7-yl)naphthalen-2-ol hydrochloride]: the IC50 (commonly the midpoint of a concentration-inhibition curve) at KRAS-G12D and SOS1 was 52.7 nM; on KRAS_G12D and cRAF it was 170 nM; at KRAS_WT and SOS1, 1680 nM.

On to `CN(C)C12CC(COc3nc(N4CC5CCC(C4)N5)c4cc(Cl)c(-c5cc(O)cc6ccccc56)c(F)c4n3)(C1)C2` (single isomer, unassigned) [Compound 127, 4-((S or R)-4-((1R,5S)-3,8-diazabicyclo[3.2.1]octan-3-yl)-6-chloro-2-((3-(dimethylamino)bicyclo[1.1.1]pentan-1-yl)methoxy)-8-fluoroquinazolin-7-yl)naphthalen-2-ol hydrochloride], for which the IC50 at KRAS-G12D and SOS1 worked out at 87.6 nM; at KRAS_G12D and cRAF, 251 nM; at KRAS_WT and SOS1, 6390 nM.

Consider `CN(CCCOc1nc(N2CC3CCC(C2)N3)c2cc(Cl)c(-c3cc(O)cc4ccccc34)c(F)c2n1)CCC(O)CO` (single isomer, unassigned) [Compound 148, 4-((3-((S or R)-4-((1R,5S)-3,8-diazabicyclo[3.2.1]octan-3-yl)-6-chloro-8-fluoro-7-(3-hydroxynaphthalen-1-yl)quinazolin-2-yl)oxy)propyl)(methyl)amino)butan-1,2-diol ditrifluoroacetate], for which the IC50 on KRAS-G12D and SOS1 is 28.6 nM; on KRAS_G12D and cRAF it was 122 nM; at KRAS_WT and SOS1 it was 2970 nM.

Turning to `Cc1cc2c(N3CC4CCC(C3)N4)nc(OCCCN(C)C)nc2c(F)c1-c1cc(O)cc2ccccc12` (single isomer, unassigned) [Compound 149a, 4-((R or S)-4-((1R,5S)-3,8-diazabicyclo[3.2.1]octan-3-yl)-2-(3-(dimethylamino)propoxy)-8-fluoro-6-methylquinazolin-7-yl)naphthalen-2-ol hydrochloride], the IC50 worked out at 39.6 nM on KRAS-G12D and SOS1; 96.9 nM on KRAS_G12D and cRAF; 854 nM on KRAS_WT and SOS1.

On to `N=C(N)NCCCOc1nc(N2CC3CCC(C2)N3)c2cc(Cl)c(-c3cc(O)cc4ccccc34)c(F)c2n1` (single isomer, unassigned) [Compound 150, 1-(3-((4-((1R,5S)-3,8-diazabicyclo[3.2.1]octan-3-yl)-6-chloro-8-fluoro-7-((S or R)-3-hydroxynaphthalen-1-yl)quinazolin-2-yl)oxy)propyl)guanidine diformate], for which the IC50 at KRAS-G12D and SOS1 amounted to 39.2 nM; at KRAS_G12D and cRAF it was 114 nM; at KRAS_WT and SOS1, 2040 nM.

On to `CN1CCC[C@H]1COc1nc(N2CCN(C(=O)CN)[C@@H](CC#N)C2)c2cc(Cl)c(-c3cc(O)cc4ccccc34)c(F)c2n1` (single isomer, unassigned) [Compound 155, 2-((S)-4-((S or R)-6-chloro-8-fluoro-7-(3-hydroxynaphthalen-1-yl)-2-((S)-1-methylpyrrolidine-2-yl)methoxy)quinazolin-4-yl)-1-glycylpiperazin-2-yl)acetonitrile ditrifluoroacetate], for which the IC50 on KRAS-G12D and SOS1 was 78.8 nM; at KRAS_G12D and cRAF it was 312 nM; at KRAS_WT and SOS1, 243 nM.

Turning to `CN1CCC[C@H]1COc1nc(N2CC3CCC(C2)N3)c2cc(F)c(-c3cc(O)cc4ccccc34)c(F)c2n1` (single isomer, unassigned) [Compound 160a, (R or S) 4-(4-((1R,5S)-3,8-diazabicyclo[3.2.1]octan-3-yl)-6,8-difluoro-2-((S)-1-methylpyrrolidin-2-yl)methoxy)quinazolin-7-yl)naphthalen-2-ol dihydrochloride], the IC50 at KRAS-G12D and SOS1 was 19.4 nM; at KRAS_G12D and cRAF, 15.1 nM; at KRAS_WT and SOS1, 152 nM.
